For the data set, the system named is rodent carcinogenicity bioassays, tumor incidence. Briefly: CCRIS carcinogenicity studies. As to conditions: Dose: 0, Dose: 0. Summed up: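 Archive of carcinogenicity, mutagenicity, tumor promotion and tumor inhibition results drawn from journals, NCI reports and other sources, expert-reviewed; covers 1985-2011 and is no longer updated.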

Activity calls are given as the source filed them. No rule for the calls is given here.

For `O=S(=O)(O)c1ccc(N=Nc2c(O)ccc3cc(S(=O)(=O)O)ccc23)cc1`, the carcinogen call was “inactive; negative” (Species: MOUSE, Strain/Sex: B6C3F1/FEMALE, Route: ORAL, 12500, 25000 PPM IN DIET, 12500, 25000 PPM IN DIET); “inactive; negative” (Species: MOUSE, Strain/Sex: B6C3F1/MALE, Route: ORAL, 12500, 25000 PPM IN DIET, 12500, 25000 PPM IN DIET); “inactive; negative” (Species: MOUSE, Strain/Sex: SWISS-WEBSTER/FEMALE, Route: DERMAL, 1% IN 0.1 ML DISTILLED WATER 1/WK FOR 19.5 MO (STUDY DURATION: 19.5 MO)); “inactive; negative” (Species: MOUSE, Strain/Sex: SWISS-WEBSTER/MALE, Route: DERMAL, 1% IN 0.1 ML DISTILLED WATER 1/WK FOR 19.5 MO (STUDY DURATION: 19.5 MO)); “inactive; negative” (Species: RAT, Strain/Sex: F344/FEMALE, Route: ORAL, 12500, 25000 PPM IN DIET, 12500, 25000 PPM IN DIET); “inactive; negative” (Species: RAT, Strain/Sex: F344/MALE, Route: ORAL, 12500, 25000 PPM IN DIET, 12500, 25000 PPM IN DIET).
As to `C[C@]12C=CC(=O)C=C1CC[C@@H]1[C@@H]2[C@@H](O)C[C@@]2(C)[C@H]1CC[C@]2(O)C(=O)COC(=O)CCCc1ccc(N(CCCl)CCCl)cc1`, the carcinogen call (Species: RAT, Strain/Sex: SPRAGUE-DAWLEY/FEMALE, Route: GAVAGE, 12 MG/KG ADMINISTERED 1, 2, 4.5 OR 9 TIMES PER MO FOR 18 MO TO GIVE MEDIAN TOTAL DOSES OF 216, 432, 938, 1872 MG/KG (, 12 MG/KG ADMINISTERED 1, 2, 4.5 OR 9 TIMES PER MO FOR 18 MO TO GIVE MEDIAN TOTAL DOSES OF 216, 432, 938, 1872 MG/KG (, Tumor Site: Type of Lesion: EAR CANAL: SQUAMOUS-CELL CARCINOMA) was “active; positive”.
In the case of `O[C@H]1[C@H]2O[C@H]2C=C[C@@H]1O`, the carcinogen call by setting is: (Species: MOUSE, Strain/Sex: SWISS/FEMALE, Route: INTRAPERITONEAL, 13.7 UMOL ADMINISTERED AS 3 UNEQUAL DOSES (1/7, 2/7, AND 4/7 OF THE TOTAL DOSE) OVER A 2-WK PERIOD (STUDY DURATION: 2, Tumor Site: Type of Lesion: LUNG: ADENOMA) “active; positive”; (Species: MOUSE, Strain/Sex: SWISS/MALE, Route: INTRAPERITONEAL, 13.7 UMOL ADMINISTERED AS 3 UNEQUAL DOSES (1/7, 2/7, AND 4/7 OF THE TOTAL DOSE) OVER A 2-WK PERIOD (STUDY DURATION: 2, Tumor Site: Type of Lesion: LUNG: ADENOMA) “active; positive”.
As for `O=C(O)C(Br)Br`, the carcinogen call by setting is: (Species: Mouse, Strain/Sex: B6C3F1/Female, Route: Oral, 50, 500, 1,000 mg/l in drinking water for 2 yr, 50, 500, 1,000 mg/l in drinking water for 2 yr, Tumor Site: Type of Lesion: Liver: Hepatocellular adenoma (19/49; 26/50; 32/50; 35/49), Hepatocellular carcinoma (3/49, 3/50, 12/50, 8/49), Hepatoce, Tumor Site: Type of Lesion: Liver: Hepatocellular adenoma (19/49; 26/50; 32/50; 35/49), Hepatocellular carcinoma (3/49, 3/50, 12/50, 8/49), Hepatoce) “active; positive (ntp reports as clear evidence)”; (Species: Mouse, Strain/Sex: B6C3F1/Male, Route: Oral, 50, 500, 1,000 mg/l in drinking water for 2 yr, 50, 500, 1,000 mg/l in drinking water for 2 yr, Tumor Site: Type of Lesion: Liver: Hepatocellular adenoma (18/49; 37/50; 42/50), Hepatocellular carcinoma (14/49, 9/50, 19/50, 26/50), Hepato, Tumor Site: Type of Lesion: Liver: Hepatocellular adenoma (18/49; 37/50; 42/50), Hepatocellular carcinoma (14/49, 9/50, 19/50, 26/50), Hepato) “active; positive (ntp reports as clear evidence)”; (Species: Rat, Strain/Sex: F344/N/Female, Route: Oral, 50, 500, 1000 mg/l in drinking water for 2 yr, 50, 500, 1000 mg/l in drinking water for 2 yr, Tumor Site: Type of Lesion: All organs: Mononuclear cell leukemia (11/50, 13/50, 16/50, 22/50)) “active; positive trend (not statistically significant) (ntp reports as some evidence)”; (Species: Rat, Strain/Sex: F344/N/Male, Route: Oral, 50, 500, 1000 mg/l in drinking water continuous for 2 yr, 50, 500, 1000 mg/l in drinking water continuous for 2 yr, Tumor Site: Type of Lesion: All organs: Malignant mesothelioma (3/50, 1/50, 0/50, 10/50), Mononuclear cell leukemia (17/50, 31/50, 24/50, 13/50)) “active; positive (malignant mesothelioma) (ntp reports as some evidence); mononuclear ce”.
As for `Cc1ccc([N+](=O)[O-])cc1`, the carcinogen call runs as follows: (Species: MOUSE, Strain/Sex: B6C3F1/FEMALE, Route: ORAL, 1250, 2500, 5000 PPM FOR 105-106 WK (STUDY DURATION: 105-106 WK), 1250, 2500, 5000 PPM FOR 105-106 WK (STUDY DURATION: 105-106 WK)) “inactive; negative”; (Species: MOUSE, Strain/Sex: B6C3F1/MALE, Route: ORAL, 1250, 2500, 5000 PPM FOR 105-106 WK (STUDY DURATION: 105-106 WK), 1250, 2500, 5000 PPM FOR 105-106 WK (STUDY DURATION: 105-106 WK), Tumor Site: Type of Lesion: LUNG: ALVEOLAR/BRONCHIOLAR ADENOMA OR CARCINOMA) “equivocal”; (Species: RAT, Strain/Sex: F344/FEMALE, Route: ORAL, 1250, 2500, 5000 PPM FOR 105-106 WK (STUDY DURATION: 105-106 WK), 1250, 2500, 5000 PPM FOR 105-106 WK (STUDY DURATION: 105-106 WK), Tumor Site: Type of Lesion: CLITORAL GLAND: ADENOMA OR CARCINOMA) “active; positive”; (Species: RAT, Strain/Sex: F344/MALE, Route: ORAL, 1250, 2500, 5000 PPM FOR 105-106 WK (STUDY DURATION: 105-106 WK), 1250, 2500, 5000 PPM FOR 105-106 WK (STUDY DURATION: 105-106 WK), Tumor Site: Type of Lesion: SKIN (SUBCUTANEOUS):FIBROMA, FIBROMA OR FIBROSARCOMA) “equivocal”.
In the case of `CCOC(=O)N(CC)N=O`, the carcinogen call was “active; positive” (Species: HAMSTER, Strain/Sex: SYRIAN/FEMALE, Route: GAVAGE, 14 MG/ML ((0.2 ML OF A SOLUTION IN ETHYL ACETATE/CORN OIL (1:2)) 1/WK FOR 28 WK (STUDY DURATION: LIFE SPAN), Tumor Site: Type of Lesion: PANCREAS: CARCINOMA OR ADENOMA, FORESTOMACH: SQUAMOUS CELL CARCINOMA OR PAPILLOMA); “active; positive” (Species: RAT, Strain/Sex: DONRYU/FEMALE, Route: ORAL, 25, 50, 100 PPM IN DRINKING WATER FOR 60 WK, 25, 50, 100 PPM IN DRINKING WATER FOR 60 WK, Tumor Site: Type of Lesion: ORAL CAVITY: PAPILLOMA, CARCINOMA, ESOPHAGUS: PAPILLOMA, CARCINOMA, FORESTOMACH: PAPILLOMA, CARCINOMA, DUODENUM: ADENOMA, Tumor Site: Type of Lesion: ORAL CAVITY: PAPILLOMA, CARCINOMA, ESOPHAGUS: PAPILLOMA, CARCINOMA, FORESTOMACH: PAPILLOMA, CARCINOMA, DUODENUM: ADENOMA); “active; positive” (Species: RAT, Strain/Sex: F344/FEMALE, Route: GAVAGE, 0.36, 1.6 MG/ANIMAL IN CORN OIL 1/WK FOR 20 WK (STUDY DURATION: 114 WK), 0.36, 1.6 MG/ANIMAL IN CORN OIL 1/WK FOR 20 WK (STUDY DURATION: 114 WK), Tumor Site: Type of Lesion: FORESTOMACH: CARCINOMA, PAPILLOMA OR CARCINOMA); “active; positive” (Species: RAT, Strain/Sex: F344/FEMALE, Route: INTRAVESICULAR, 0.8 MG 2/WK FOR 14 WK (STUDY DURATION: LIFETIME), Tumor Site: Type of Lesion: BLADDER: TUMOR); “active; positive” (Species: RAT, Strain/Sex: F344/FEMALE, Route: ORAL, 0.15, 0.6, 2.5, 10 PPM IN DISTILLED WATER FOR 2 YRS (STUDY DURATION: 112 WK), 0.15, 0.6, 2.5, 10 PPM IN DISTILLED WATER FOR 2 YRS (STUDY DURATION: 112 WK), Tumor Site: Type of Lesion: ORAL CAVITY: PAPILLOMA, CARCINOMA, ESOPHAGUS: PAPILLOMA, CARCINOMA, FORESTOMACH: PAPILLOMA, CARCINOMA, Tumor Site: Type of Lesion: ORAL CAVITY: PAPILLOMA, CARCINOMA, ESOPHAGUS: PAPILLOMA, CARCINOMA, FORESTOMACH: PAPILLOMA, CARCINOMA).
For `CO[C@@H](Cc1ccc(OCCCOc2ccc(Oc3ccccc3)cc2)cc1)C(=O)O`, the carcinogen call reads like this: (Species: Rat, Strain/Sex: F344/N / Female (60/Group), Route: Oral (gavage), 0.1, 0.3, 1.0 mg/kg bw daily for 104 wk, study duration 104 wk, 0.1, 0.3, 1.0 mg/kg bw daily for 104 wk, study duration 104 wk, Tumor Site: Type of Lesion: Bladder: carcinoma (0, 0, 2, 8), papilloma (0, 0, 0, 6)) “active; positive. study primarily directed to urine characteristics”; (Species: Rat, Strain/Sex: F344/N / Male (60/Group), Route: Oral (gavage), 0.3, 1.0, 3.0 mg/kg bw daily for 104 wk, study duration 104 wk, 0.3, 1.0, 3.0 mg/kg bw daily for 104 wk, study duration 104 wk) “inactive; negative”.
